Measured values taken from ChEMBL document CHEMBL1201862, “PubChem BioAssay data set” (2004).
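Tested at 5 concentrations; 48 h exposure; 96-well plates; endpoints linearly interpolated, else capped at highest concentration. GI50 = concentration required for 50% inhibition of growth.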 Active and inactive are the calls of the source. Cut-off read from the data, not from the text of the source: active = GI50 up to about 1.1 µM and inactive = higher.

Experiments:
Test in all cases: inhibition of tumour cell growth, NCI panel, 48 h
[1] = tested on: KM12
[2] = tested on: OVCAR-3
[3] = tested on: HCC 2998
[4] = tested on: A549
[5] = tested on: MDA-MB-435
[6] = tested on: SF-268
[7] = tested on: IGROV-1
[8] = tested on: U-251
[9] = tested on: HCT-15
[10] = tested on: MCF7
[11] = tested on: SW-620
[12] = tested on: MOLT-4
[13] = tested on: BT-549
[14] = tested on: NCI/ADR-RES
[15] = tested on: HOP-92
[16] = tested on: NCI-H23
[17] = tested on: SNB-19
[18] = tested on: OVCAR-5
[19] = tested on: SF-295
[20] = tested on: SNB-75

| Compound | GI50 [1] | GI50 [2] | GI50 [3] | GI50 [4] | GI50 [5] | GI50 [6] | GI50 [7] | GI50 [8] | GI50 [9] [µM] | GI50 [10] | GI50 [11] | GI50 [12] | GI50 [13] | GI50 [14] | GI50 [15] | GI50 [16] | GI50 [17] | GI50 [18] | GI50 [19] | GI50 [20] |
| --- | --- | --- | --- | --- | --- | --- | --- | --- | --- | --- | --- | --- | --- | --- | --- | --- | --- | --- | --- | --- |
| CCCCCCNCCCNc1c2cc(OC)ccc2nc2cccc([N+](=O)[O-])c12 | 0.144 µM (active) | 0.0966 µM (active) | 0.0203 µM (active) | 0.0578 µM (active) | 0.143 µM (active) | 0.0731 µM (active) | 0.0119 µM (active) | 0.131 µM (active) | 0.198 | 0.212 µM (active) | < 0.0233 µM (active) | 0.112 µM (active) | 0.809 µM (active) | 0.658 µM (active) | 0.136 µM (active) | 0.124 µM (active) | 0.369 µM (active) | 0.135 µM (active) | 0.0865 µM (active) | 0.298 µM (active) |
| CCOc1ccc(/N=N/C2C(=O)N(C(=O)CC(=O)Nc3ccc(C)cc3)N=C2C)cc1 (stereo not given) | 8.47 µM (inactive) | 20.6 µM (inactive) | 19 µM (inactive) | 34.7 µM (inactive) | 2.94 µM (inactive) | 22.3 µM (inactive) | 15.9 µM (inactive) | 15.1 µM (inactive) | 38.1 | 40.6 µM (inactive) | 21.6 µM (inactive) | 14.7 µM (inactive) | 23.6 µM (inactive) | 24.4 µM (inactive) | 16.7 µM (inactive) | 26.5 µM (inactive) | 14.3 µM (inactive) | > 100 µM (inactive) | 21.2 µM (inactive) | 8.02 µM (inactive) |
| COc1cc(O)c2c(=O)c3c(C)cccc3n(C)c2c1 | > 10 µM (inactive) | > 10 µM (inactive) | > 10 µM (inactive) | > 10 µM (inactive) | > 10 µM (inactive) | > 10 µM (inactive) | > 10 µM (inactive) | > 10 µM (inactive) | > 10 | > 10 µM (inactive) | > 10 µM (inactive) | > 10 µM (inactive) | > 10 µM (inactive) | > 10 µM (inactive) | > 10 µM (inactive) | > 10 µM (inactive) | > 10 µM (inactive) | > 10 µM (inactive) | > 10 µM (inactive) | > 10 µM (inactive) |
| COc1cc(-c2[o+]c3cc(O)cc(O)c3cc2O)cc(O)c1O | > 100 µM (inactive) | > 100 µM (inactive) | 35 µM (inactive) | > 100 µM (inactive) | 19.4 µM (inactive) | > 100 µM (inactive) | > 100 µM (inactive) | > 100 µM (inactive) | > 100 | 21.3 µM (inactive) | 30.6 µM (inactive) | > 100 µM (inactive) | > 100 µM (inactive) | > 100 µM (inactive) | > 100 µM (inactive) | > 100 µM (inactive) | > 100 µM (inactive) | > 100 µM (inactive) | > 100 µM (inactive) | > 100 µM (inactive) |
| CO/N=C(\C)c1ccc(Nc2c3ccccc3nc3occc23)cc1 | 0.201 µM (active) | 0.284 µM (active) | 0.322 µM (active) | 0.643 µM (active) | 0.0451 µM (active) | 0.718 µM (active) | 0.233 µM (active) | 0.522 µM (active) | 0.191 | 0.168 µM (active) | 0.33 µM (active) | 0.366 µM (active) | 0.845 µM (active) | 0.181 µM (active) | 12.9 µM (inactive) | 2.36 µM (inactive) | 2.05 µM (inactive) | 4.08 µM (inactive) | 0.207 µM (active) | 0.41 µM (active) |
